Assay results from patent US20250040546A1, “DETERGENT FOR VIRAL INACTIVATION” (Bristol-Myers Squibb Company, priority 2021, published 2025).
Like-named read-outs stand apart in the source and are kept apart here.

Assays:
[1] = test system: X-MuLV; assay: Detergent-mediated virus inactivation of X-MuLV in mAb1 harvest (pfu-based LRV); assay type: cell-based, Xenotropic Murine Leukemia Virus; conditions: for Log reduction value (LRV) of X-MuLV: 60 minutes hold at 2-8° C.
Protocol: (§1) Three lipid-enveloped viruses X-MuLV, HSV-1 and A-MuLV (Amphotropic Murine Leukemia Virus) were investigated for VI in the cell culture fluid of a monoclonal antibody (mAb1) and a fusion protein (Fus1) for a range of detergents and detergent concentrations (FIG. 6). Protein concentration and buffer matrix were dictated by that in the harvest for the specific therapeutic and process. A temperature of 2-8° C. was used as a worst case for inactivation and incubation times of 0, 5 and 60 minutes were used to explore the kinetics of inactivation. Viral clearance was measured in units of Log Reduction Value (LRV) which was calculated from pfu (Plaque Forming Units) as follows
(§2) Virus inactivation studies were conducted for X-MuLV in mAb1 harvest, HSV-1 and A-MuLV in Fus1 harvest at 0, 5 and 60 minutes at 2-8° C. The inactivation studies for each condition were conducted in duplicates with results varying within 0.5 LRV. The lower of the two LRVS was plotted in FIG. 6 to remain conservative regarding the extent of inactivation. The error bars represent the assay variability.
The mechanism of detergent-mediated VI can share similarities with pH-mediated VI and is likely a characteristic of the detergent-protein-virus system under consideration. Detergents could unfold or denature specific viral surface glycoproteins that are critical for the host cell infection as is the case for X-MuLV [Brorson et al. (2003) Biotechnology and Bioengineering 82(3):321-329; Simons & Ehehalt (2002) Journal of Clinical Investigation 110(5):597-603]. Alternately, detergents could inactivate viruses such as HSV-1 through dissolution of the viral lipid envelope or preferential partitioning of the membrane protein into detergent micelles [Welling-Wester et al. (1998) Journal of chromatography A 816(1):29-37]. Three lipid-enveloped viruses commonly used for viral validation studies, X-MuLV, HSV-1 and A-MuLV (Amphotropic Murine Leukemia Virus), were investigated for VI. Any VI condition showing LRV ≥4.0 after a 60 minute hold at 2-8° C., worst case temperature for VI, was considered effective. The extent of inactivation from different detergents was compared with Triton X-100.

[2] = cited from earlier work
[3] = test system: B7.1 Ig; assay: Potency: Surface Plasmon Resonance binding of CTLA-4 domain of Fus1 to B7.1 Ig in presence of detergent; conditions: high concentration Fus1 DS; detergent at 10×CMC; 24 hours, room temperature
Protocol: The potency was determined by measuring the binding efficacy of the CTLA-4 (cytotoxic T-lymphocyte-associated protein 4) domain of the fusion proteins against the complementary binding domain of membrane protein B7.1 Ig, typically found on activated antigen-presenting cells (APC). Drug efficacy for the purified DS was evaluated using a Surface Plasmon Resonance assay; the binding efficacy of the CTLA-4 domain of Fus1 and Fus2 against a high concentration of the peripheral membrane protein B7.1 Ig was examined. Due to the influence of impurities on the binding efficacy, only DS was tested.

[4] = target: T1, Fus1 (Homo sapiens, UniProt P16410); assay: Oxidation of Fus1 (tryptic digest RP-UPLC) after detergent spiking of harvest; assay type: physicochemical; conditions: Fus1 harvest spiked with detergent at 1×CMC, protein A eluate
T1 construct: made in house; host or cells: CHO
Protocol: (§3) The protein sample was denatured in denaturation buffer (8 M guanidine, 50 mM TRIS, pH 8.0) and the cystine disulfide bridges were reduced with dithiothreitol (200 mM DTT) followed by S-alkylation with iodoacetamide (400 mM IAM). The denatured, reduced protein was buffer-exchanged (50 mM TRIS, 10 mM CaCl2), pH 7.6) prior to digestion with trypsin. The resulting digested mixture was then analyzed by reverse-phase ultra-performance liquid chromatography (RP-UPLC) using UPLC BEH C18 Column, […], 130 angstrom, 2.1×100 mm (Waters, Catalog no. 186002352) with Mobile Phase A (0.1% TFA, 50 mM Methionine in HPLC Grade Water) and Mobile Phase B (0.1% TFA, 50 mM Methionine in 80% ACN and 20% HPLC grade water). Protein detection at 215 nm absorbance and fluorescent excitation/emission of 275 nm/303 nm and 280 nm/348 nm was used to quantify relative levels of oxidation and deamidation respectively.

[5] = target: T2, Fus2 (Homo sapiens, UniProt P16410, A66Y/L141E); assay: Oxidation of Fus2 (tryptic digest RP-UPLC) after detergent spiking of harvest; assay type: physicochemical; conditions: Fus2 harvest spiked with detergent at 1×CMC, protein A eluate
T2 construct: made in house; host or cells: CHO
Protocol: as §3

[6] = test system: lipid-enveloped viruses; assay: Viral inactivation, summary statements (LRV equal or above 4 criterion); assay type: cell-based; conditions: detergent below its CMC, e.g. 0.5×CMC; virus not named
From the text: The present disclosure relates to detergent-mediated inactivation of lipid-enveloped viruses. […] The current commercially available detergent for such process is Triton X-100.
Several environmentally friendly detergents for the viral inactivation step of biologics manufacturing processes have been identified in the art, e.g., Lauryldimethylamine Oxide (LDAO) and ECOSURF™ EH9. These systems for viral inactivation use a single detergent. The present disclosure provides a detergent mixture comprising two environmentally sustainable detergents: n-Octyl-β-D-Glucopyranoside (OG) and n-Dodecyl-β-D-Maltopyranoside (DDM). […] Accordingly, the disclosed combination of OG and DDM can be used as substitute of Triton X-100 for the viral inactivation step in the production of biologics, for example, in the process used to manufacture ORENCIA®.

[7] = test system: fusion proteins Fus1 and Fus2; assay: SEC analysis of HMW formation and aggregation kinetics of fusion proteins with detergents; assay type: physicochemical
Protocol: Size exclusion chromatography (SEC) was performed in a Waters HPLC Alliance 2695 System using TSKgel G3000SWXL Column (Tosoh Bioscience, Catalogue no. 085430) with guard column (Tosoh Bioscience, Catalogue no. 08541) in line. A mobile phase of 0.2 M Sodium phosphate, monobasic, 0.9% NaCl, pH 7.0 was used with 20 μL injection volumes at 1 to 10 mg/mL target protein concentrations with a flow rate of 1 mL/minute. Tandem SEC was performed with 50 μL injection volumes with a flow rate of 0.5 mL/minute using 6 TSKgel G3000SWXL Column using 0.2 M KH2PO4, 0.9% NaCl, pH 6.8 as mobile phase.
Given N is the monomer species, No is the initial monomer % at time t=0, aggregation follows first order kinetics with k1 being the rate constant of aggregation as shown in Equation (1) (Derivation in Supplemental Information).

[8] = Sialic acid content of Fus1 and Fus2 Protein A eluates of detergent-spiked harvest; assay type: physicochemical; conditions: stated as within acceptable range
Protocol: Sialic acids are neuraminic acids modified by the addition of an acetyl group (N-acetylneuraminic acid/NANA) or a glycol group (N-glycolylneuraminic acid/NGNA) .Sialic acid contents are reported as normalized molar ratios, which are the total moles of NANA and NGNA per mole of recombinant protein. The protein concentrations were determined by UV absorbance at 280 nm. Sialic acid content was determined by partial acidic hydrolysis using sulfuric acid at 0.1 N final concentration at 80° C. for 1 hour followed by reversed phase HPLC using Rezex Monosaccharide RHM HPLC column (Phenomenex, Catalog No. OOH-0132-KO with respective guard column (Phenomenex, Catalog No. 03B-0132-KO). Elution was conducted with 5 mM Sulfuric acid at 0.6 mL/min and 40° C.

[9] = Isoelectric point (pI); assay type: physicochemical
[10] = test system: A-MuLV; assay: Detergent-mediated virus inactivation of A-MuLV in Fus1 harvest (pfu-based LRV); assay type: cell-based, Amphotropic Murine Leukemia Virus; conditions: detergent concentration not stated
Protocol: as §1, §2
The mechanism of detergent-mediated VI can share similarities with pH-mediated VI and is likely a characteristic of the detergent-protein-virus system under consideration. […]

[11] = test system: HSV-1; assay: Detergent-mediated virus inactivation of HSV-1 in Fus1 harvest (pfu-based LRV); assay type: cell-based, Herpes Simplex Virus type 1; conditions: detergent concentration not stated
[12] = Slinde & Flatmark (1976); cited from earlier work

T1 sequence (P16410 with tags, fused parts or gaps): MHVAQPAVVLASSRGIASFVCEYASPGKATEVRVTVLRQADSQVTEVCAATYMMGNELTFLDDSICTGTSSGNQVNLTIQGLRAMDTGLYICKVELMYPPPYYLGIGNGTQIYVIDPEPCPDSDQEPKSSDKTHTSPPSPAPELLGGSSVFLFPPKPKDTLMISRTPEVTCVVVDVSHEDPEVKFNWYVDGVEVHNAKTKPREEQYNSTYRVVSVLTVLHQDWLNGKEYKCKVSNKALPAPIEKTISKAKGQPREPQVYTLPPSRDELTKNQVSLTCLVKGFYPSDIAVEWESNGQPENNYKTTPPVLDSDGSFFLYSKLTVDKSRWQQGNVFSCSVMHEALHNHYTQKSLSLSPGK
T2 sequence (P16410 with tags, fused parts or gaps A66Y/L141E limits assumed): as the sequence (P16410 with tags, fused parts or gaps) above, with A29Y, L104E counted along it

CCCCCCCCCCO[C@@H]1O[C@H](CO)[C@@H](O[C@H]2O[C@H](CO)[C@@H](O)[C@H](O)[C@H]2O)[C@H](O)[C@H]1O [DM, n-Decyl-β-D-Maltopyranoside]
Log reduction value (LRV) of X-MuLV ([1]; detergent at 10×CMC): 2.0 LRV

CCCCCCCCCCCC[N+](C)(C)[O-] [LDAO, Lauryldimethylamine Oxide]
LRV ([2]; fusion protein at 2-8° C. (Conley et al.)): ~3.0 LRV | LRV ([2]; fusion protein at room temperature (Conley et al.)): ~4.0 LRV | LRV ([2]; mAb under the same conditions, 2-8° C. (Conley et al.)): 4.0 LRV

CCCCCCCCO[C@@H]1O[C@H](CO)[C@@H](O)[C@H](O)[C@H]1O [OG, n-Octyl-β-D-Glucopyranoside]
Potency (B7 binding efficiency relative to reference material) [3]: less than 60% | Oxidation of Fus1 [4]: higher oxidation | Oxidation of Fus2 [5]: higher oxidation | Viral inactivation (defined as a LRV equal or above 4) [6]: insufficient for viral inactivation | HMW formation (rank among detergents) ([7]; SEC, DS and clarified harvest of Fus1 and Fus2): greatest | Rate of aggregation (rank among OG, DDM, LDAO) ([7]; high concentration DS of Fus1 and Fus2): fastest rate of aggregation

Fus1: fusion protein abatacept (CTLA4-Ig, SEQ ID NO:1 proteins)
NANA (N-acetylneuraminic acid): protein molar concentration [8]: 8 to 12% | pI [9]: ~5.0

Fus2: fusion protein belatacept (SEQ ID NO:2 proteins)
NANA (N-acetylneuraminic acid): protein molar concentration [8]: 6 to 8.5% | pI [9]: ~5.0

Polysorbate 80 [PS80]
Inactivation of A-MuLV [10]: No inactivation | Inactivation of HSV-1 [11]: No inactivation | Inactivation of X-MuLV ([1]; detergent concentration not stated): No inactivation

Triton X-100
Log reduction value (LRV) of X-MuLV ([1]; detergent at 1×CMC): ≥ 4.85±0.5 LRV | Log reduction value (LRV) of X-MuLV ([1]; detergent at 10×CMC): ≥ 4.85±0.5 LRV | HLB value [12]: 13.5
